# Measured values: patent publication US20210139857A1, “Intestinal organoid co-culture systems and methods for treating or preventing a disease or disorder associated with immune response-mediated tissue injury” (NEW YORK UNIVERSITY, priority 2019, published 2021)
# Legend:
# Atg16L1^ΔIEC mice = assay: preclinical GVHD model: allo-HCT after chemotherapy conditioning, GSK547 or control chow; format: in vivo, mouse; details: GSK547 chow started 10 days before allo-HCT, P<0.05
# Text: FIG. 1F depicts the survival of chemotherapy-pretreated Atg16L1^f/f (f/f) and Atg16L1^ΔIEC (ΔIEC) mice which received GSK547 or control chow and were transplanted with 5×10^6 T cell-depleted BM cells with 4×10^6 splenic T cells from donor LP/J mice. n=8 (f/f, control), 8 (ΔIEC, control), 8 (f/f, GSK547), and 8 (ΔIEC, GSK547). GSK547 was started 10 days before allo-HCT, and continued until the end of the study. FIG. 1G depicts the clinical disease scores evaluated every 7 days after allo-HCT. Data points in FIG. 1B, FIG. 1D, and FIG. 1F represent individual mice, and data points in FIG. 1C, FIG. 1E, and FIG. 1G are mean of clinical scores of viable mice. Bars represent means±SEM, and survival data in FIG. 1B, FIG. 1D, and FIG. 1F are combined results of 2 experiments performed independently. FIG. 1B, FIG. 1D, and FIG. 1F were analyzed with the Mantel-Cox log rank test.
# In brief, female B6 background mice were intraperitoneally injected with busulfan (20 mg/kg/day) for 5 days, followed by cyclophosphamide (100 mg/kg/day) for 3 days. Days −2 and −1 were rest days. […] Recipient mice were monitored daily for survival and weekly quantified for clinical GVHD for 5 clinical parameters (weight loss, hunched posture, activity, fur ruffling, and skin lesions) on a scale from 0 to 2. […]
# [1] = test system: ATG16L1^T300A homozygous human organoids; assay: human organoid viability assay, TNFα-induced death; format: cell-based; details: 50 ng/ml TNFα, 48 hours; 100 nM Ruxolitinib, 1 μM GSK547, 20 μM Necrostatin-1s, 2 μM NSA; P<0.0001
# Protocol: N=14 (Nonrisk) and 6 (T300A/T300A). Statistical significance was validated with Fisher's exact test. FIG. 13B depicts a combined organoid viability in (A). N=14 (Non-risk) and 6 (T300A/T300A). FIG. 13C and FIG. 13D depict representative images (FIG. 13C) and viability (FIG. 13D) of human small intestinal organoids stimulated with or without 50 ng/ml TNFα, 100 nM Ruxolitinib, 1 μM GSK547, 20 μM Necrostatin-1s (Nec-1s), and 2 μM necrosulfonamide (NSA) for 48 hours. Scale bars represent 400 μm. Data points in FIG. 13B represent an average viability of individual organoids in FIG. 12, and data points in FIG. […] are mean of technical replicates. At least 2 independent experiments were performed. ***p<0.001, ****p<0.0001.
# Mouse small intestinal and colonic crypts were isolated and cultured. Crypts of proximal small intestine were counted and embedded in Matrigel at 10,000 crypts/ml and cultured in DMEM/F-12 in the presence of 100 IU penicillin and 100 μg/ml streptomycin (Corning), 125 μg/ml gentamicin (Gibco), 2 mM l-glutamine (Corning), 20 ng/ml mEGF (PeproTech), 100 ng/ml mNoggin (R&D Systems), and 500 ng/ml mR-Spondin 1 (R&D Systems), hereafter referred as ENR medium. Crypts of colon were counted and embedded in Matrigel and cultured in the ENR medium plus 50 ng/ml Wnt-3a, 1×B-27, and N-2 supplement (Thermo Fisher Scientific). Surface area of organoids was quantified with Image J. For organoid viability assays, crypts were embedded in 10 μl of Matrigel at 5,000 crypts/ml and cultured in 96-well culture plate in triplicate with or without 20 ng/ml mTNFα (PeproTech) and 100 nM Ruxolitinib (Selleckchem). Percent viable organoids was determined by daily quantification of the number of intact organoids. Opaque organoids with condensed structures or those that have lost adherence were excluded. Dead organoids were marked by staining with 100 μg/ml propidium iodide (SIGMA-ALDRICH). Human intestinal organoids were cultured (Neil et al., 2019, Nat Microbiol 4, 1737-1749). […]
Compound,survival after allo-HCT (Atg16L1^ΔIEC mice; BM + T cells from LP/J donors),clinical GVHD score after allo-HCT (Atg16L1^ΔIEC mice; scored every 7 days),"viability of human organoids, TNFα-induced death [1]"
N#Cc1cc(N2CCC(C(=O)N3N=CC[C@H]3c3cc(F)cc(F)c3)CC2)ncn1 [GSK547],significantly better survival,significantly better,significantly protected
CN1C(=O)NC(Cc2c[nH]c3c(Cl)cccc23)C1=O (centres unmarked) [Necrostatin-1s],,,significantly protected
COc1nccnc1NS(=O)(=O)c1ccc(NC(=O)/C=C/c2ccc([N+](=O)[O-])s2)cc1 [Necrosulfonamide],,,significantly protected
